From US20050273177A1, “Prosthetic device having drug delivery properties” (priority 2004, published 2005) come the findings set out here.

SMILES strings stand for the structures.

A short description of this data set: In vitro PGE-1 elution from coated stents overlaid with a permeable polymer membrane, measured by HPLC. It counts as physicochemical. As for the experimental part: Various materials presently used in pharmaceutical preparations as solubilizers, crystallization inhibitors, suspension stabilizers and lyophilization agents were mixed with PGE-1. The mixtures were dissolved in solvent systems composed of ethanol, chloroform, water, or mixtures thereof. Prior to coating, stents (provided by different stent manufacturers) were cleaned by sonification in absolute ethanol for thirty minutes, and dried. Each stent was weighed before and after coating. The amount of PGE-1 in the coating solution was determined by high performance liquid chromatography analysis (HPLC), and used to calculate the percent by weight of PGE-1 on the stent. To confirm this value, the coating was dissolved (from the stent) and the PGE-1 content analyzed by HPLC.
Drug coatings on the stents were assessed using scanning electron microscopy (SEM) for: (a) smoothness, (b) uniformity, and (c) lack of cracking. Stents that met these criteria, were overlaid with a thin membrane of non-erodable polymer matrix to retard the release of PGE-1 from the surface of the stents. Vapor-deposition of the polymer matrix was carried out according to the manufacturer's protocol, and the thickness of the polymer matrix membrane was measured using a Tencor device.
Using the most desirable coating combination, twenty coronary stents were coated with either 100 micrograms or 250 micrograms of PGE-1, and overlaid with the polymer matrix membrane. Five stents from each drug concentration were expanded by insertion of a balloon catheter. The stents were examined by SEM after deposition of the pharmaceutical layer 14, after applying the membrane 16, and after expansion of the stents 12.
PGE-1 elution profiles were determined for each group of stents 12. In vitro PGE-1 release curves were performed using HPLC. Drug elution profiles were measured in phosphate buffered saline (pH 7.4) using a LabQuake 360° degree rotator, at ambient temperature. At each time point, the stents were removed from the one milliliter sample (typically, after 24 hours) and transferred to the next aliquot. HPLC analysis of the eluent was performed using a Waters Alliance system equipped with a 996 photodiode array detector.
HPLC Program Conditions/Settings:
Column: 4.6 mm×150 mm Reverse Phase C18
Photo-diode array UV detector set to scan 190 to 300 nm
Solvent system: 35% Acetonitrile/65% water with 0.1% acetic acid
In Example 2 a second set of twenty stents were coated as described above, except the polymer membrane overcoat 16 was twice the thickness as the former.

Take `CCCCC[C@H](O)/C=C/[C@H]1[C@H](O)CC(=O)[C@@H]1CCCCCCC(=O)O` [PGE-1, prostaglandin E-1]: the “Period of initial burst of PGE-1 release” value (FIGS. 2A and 2B, thinner membrane, 100 or 250 μg PGE-1) is 48-96 hours. Moreover, the “Duration of slow, sustained release of the drug” value (FIGS. 2A and 2B, thinner membrane, after the initial burst) is recorded as “approximately sixty”. The “Release profile with thicker polymer overcoat compared with thinner membrane” value (FIGS. 3A and 3B, membrane twice the thickness) was “initial release of PGE-1 is delayed and the overall amount of PGE-1 eluted from the stents 12 over time is reduced”. Also, the “PGE-1 Released (%)” value was found to be 82% (Study 1, 73 days, expanded stent coated with 100 μg PGE-1, PBS pH 7.4, ambient temperature); 83% (Study 1, 73 days, expanded stent coated with 250 μg PGE-1, PBS pH 7.4, ambient temperature); 37% (Study 1, 73 days, unexpanded stent coated with 100 μg PGE-1, PBS pH 7.4, ambient temperature); 46% (Study 1, 73 days, unexpanded stent coated with 250 μg PGE-1, PBS pH 7.4, ambient temperature); 71% (Study 2 (membrane twice the thickness), 35 days, expanded stent coated with 100 μg PGE-1, PBS pH 7.4); 26% (Study 2 (membrane twice the thickness), 35 days, expanded stent coated with 250 μg PGE-1, PBS pH 7.4). Further, the “PGE-1 Released (%)” value came out at 19% (Study 2 (membrane twice the thickness), 35 days, unexpanded stent coated with 100 μg PGE-1, PBS pH 7.4) and 26% (Study 2 (membrane twice the thickness), 35 days, unexpanded stent coated with 250 μg PGE-1, PBS pH 7.4).
